Results as given in patent publication US20250154169A1, “COMPOUNDS AND METHODS FOR MODULATING SPLICING” (REMIX THERAPEUTICS INC., priority 2021, published 2025).
Where two headings read alike, the source gives them in different places.

Assays:
Type in all cases: cell-based, human
HTT mRNA [1] = experiment: Splicing RT-qPCR assay, HTT canonical (CJ) and alternative (AJ) junction mRNA; settings: Homo sapiens, A673 or K562 cells, 24 hours compound treatment; for IC50: 24 h, read-out: HTT CJ (IC50, decrease in canonical junction mRNA); for AC50: read-out: HTT AJ (AC50, increase in alternative junction mRNA)
How it was run: (§1)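 A673 or K562 cells were treated 24 h at 37 °C with an 11-point 3-fold compound dilution series (top 10 uM, DMSO ≤0.25%). Lysates went to one-step RT-qPCR measuring canonical (CJ) and alternative-exon (AJ) junction transcripts, normalized to GAPDH, GUSB or PPIA.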

MYB mRNA = experiment: Splicing RT-qPCR assay, MYB canonical (CJ) and alternative (AJ) junction mRNA; settings: Homo sapiens; for AC50: read-out: MYB AJ (AC50, increase in alternative junction mRNA)
How it was run: as §1

SMN2 mRNA = experiment: Splicing RT-qPCR gene panel, SMN2 canonical junction (CJ) mRNA; settings: Homo sapiens, Tables 4A/4B, read-out: SMN2 (IC50, decrease in CJ mRNA, gene panel)
Protocol: (§2) Compounds described herein were used to modulate RNA transcript abundance in cells. The expression of a target mRNA was measured by detecting the formation of an exon-exon junction in the canonical transcript (CJ). A compound mediated exon-inclusion event was detected by observing an increase in formation of a new junction with an alternative exon (AJ). Real-time qPCR assays were used to detect these splicing switches and interrogate the potency of various compounds towards different target genes. A high-throughput real time quantitative PCR (RT-qPCR) assay was developed to measure these two isoforms of the mRNA (CJ and AJ) for exemplary genes, such as HTT, SMN2, and MYB, together with a control housekeeping gene, GAPDH or GUSB or PPIA, used for normalization. Briefly, the A673 or K562 cell line was treated with various compounds described herein (e.g., compounds of Formula (I)). After treatment, the levels of the HTT, MYB, or SMN2 mRNA targets were determined from each sample of cell lysate by cDNA synthesis followed by qPCR.
(§3) The A673 cell line was cultured in DMEM with 10% FBS. Cells were diluted with full growth media and plated in a 96-well plate (15,000 cells in 100 ul media per well). The plate was incubated at 37° C. with 5% CO2 for 24 hours to allow cells to adhere. An 11-point 3-fold serial dilution of the compounds was made in DMSO then diluted in media in an intermediate plate. Compounds were transferred from the intermediate plate to the cell plate with the top dose at a final concentration of 10 uM in the well. Final DMSO concentration was kept at or below 0.25%. The cell plate was returned to the incubator at 37° C. with 5% CO2 for an additional 24 hours.
(§4) The K562 cell line was cultured in IMDM with 10% FBS. For K562, cells were diluted with full growth media and plated in either a 96-well plate (50,000 cells in 50 uL media per well) or a 384-well plate (8,000-40,000 cells in 45 uL media per well). An 11-point 3-fold serial dilution of the compounds were made in DMSO then diluted in media in an intermediate plate. Compound was transferred from the intermediate plate to the cell plate with the top dose at a final concentration of 10 uM in the well. Final DMSO concentration was kept at or below 0.25%. Final volume was 100 uL for 96-well plate and 50 uL for 384-well plate. The cell plate was then placed in an incubator at 37° C. with 5% CO2 for 24 hours.
(§5) The cells were then gently washed with 50 uL-100 uL cold PBS before proceeding to addition of lysis buffer. 30 uL-50 uL of room temperature lysis buffer with DNAse I (and optionally RNAsin) was added to each well. Cells were shaken/mixed thoroughly at room temperature for 5-10 minutes for lysis to take place and then 3 uL-5 uL of room temperature stop solution was added and wells were shaken/mixed again. After 2-5 minutes, the cell lysate plate was transferred to ice for RT-qPCR reaction setup. The lysates could also be frozen at −80° C. for later use.
(§6) In some cases, a direct lysis buffer was used. An appropriate volume of 3× lysis buffer (10 mM Tris, 150 mM NaCl, 1.5%-2.5% Igepal and 0.1-1 U/uL RNAsin, pH 7.4) was directly added to either K562 or A673 cells in media and mixed by pipetting 3 times. The plates were then incubated at room temperature with shaking/rocking for 20-50 minutes to allow for lysis to take place. After this time, the cell lysate plate was transferred to ice to set up for the RT-qPCR reactions. The lysates could also be frozen at −80° C. for later use.
(§7) To set up 10 uL RT-qPCR reactions, cell lysates were transferred to 384-well qPCR plates containing the master mix according to the table below. The plates were sealed, gently vortexed, and spun down before the run. The volumes were adjusted accordingly in some instances where the reaction was carried in 20 μL. The table below summarizes the components of the RT-qPCR reactions:
(§8) The RT-qPCR reaction was performed using a QuantStudio (ThermoFisher) under the following fast cycling conditions. […]

Target C mRNA = experiment: Splicing RT-qPCR gene panel, Target C canonical junction (CJ) mRNA; settings: Homo sapiens, Tables 4A/4B, read-out: Target C (IC50, decrease in CJ mRNA, gene panel)
Protocol: as §2, §3, §4, §5, §6, §7, §8

HTT mRNA [2] = experiment: Splicing RT-qPCR gene panel, HTT canonical junction (CJ) mRNA; settings: Homo sapiens, Tables 4A/4B, read-out: HTT (IC50, decrease in CJ mRNA, gene panel)
Protocol: as §2, §3, §4, §5, §6, §7, §8

[3] = 24 h, A673 or K562 cells, 24 hours compound treatment, RT-qPCR
[4] = 24 h, A673 or K562 cells, 24 hours compound treatment, RT-qPCR, read-out: MYB CJ (IC50, decrease in canonical junction mRNA)
[5] = Tables 4A/4B, canonical junction qPCR panel, read-out: MYB (IC50, decrease in CJ mRNA, gene panel)

Structure (SMILES) | IC50 (HTT mRNA [1]) | AC50 (HTT mRNA [1]) | AC50 (MYB mRNA; [3]) | IC50 (MYB mRNA; [4]) | IC50 (MYB mRNA; [5]) | IC50 (SMN2 mRNA) | IC50 (Target C mRNA) | IC50 (HTT mRNA [2])
Cc1cn2cc(NC(=O)c3ccc(N4CC[C@@H](N(C)C)C4)c4cn(C)nc34)cc(F)c2n1 (single isomer, unassigned) [Compound 350, 4-[3-(dimethylamino)pyrrolidin-1-yl]-N-{8-fluoro-2-methylimidazo[1,2-a]pyridin-6-yl}-2-methylindazole-7-carboxamide] | 1000 to 10000 nM | 1000 to 10000 nM | < 100 nM | < 100 nM | < 100 nM | < 100 nM | > 10000 nM | 1000 to 10000 nM
Cc1cn2cc(NC(=O)c3ccc(N4CC[C@H](N(C)C)C4)c4cn(C)nc34)cc(F)c2n1 (single isomer, unassigned) [Compound 351, 4-[3-(dimethylamino)pyrrolidin-1-yl]-N-{8-fluoro-2-methylimidazo[1,2-a]pyridin-6-yl}-2-methylindazole-7-carboxamide] | 1000 to 10000 nM | 1000 to 10000 nM | < 100 nM | < 100 nM | < 100 nM | < 100 nM | > 10000 nM | 1000 to 10000 nM
Cc1cn2cc(NC(=O)c3ccc(N4CCN[C@@H](C)C4)c4cn(C)nc34)cc(F)c2n1 (single isomer, unassigned) [Compound 352] | 100 to 1000 nM | 100 to 1000 nM | < 100 nM | < 100 nM | < 100 nM | < 100 nM | 1000 to 10000 nM | 100 to 1000 nM
Cc1cn2cc(NC(=O)c3ccc(N4CCN[C@H](C)C4)c4cn(C)nc34)cc(F)c2n1 (single isomer, unassigned) [Compound 353] | 100 to 1000 nM | 100 to 1000 nM | < 100 nM | < 100 nM | < 100 nM | < 100 nM | 1000 to 10000 nM | 100 to 1000 nM
CNC1CCN(c2ccc(C(=O)Nc3cc(F)c4nc(C)cn4c3)c3nn(C)cc23)C1 (stereo in doubt) [Compound 387, N-{8-fluoro-2-methylimidazo[1,2-a]pyridin-6-yl}-2-methyl-4-[(3R)-3-(methylamino)pyrrolidin-1-yl]indazole-7-carboxamide] | 1000 to 10000 nM | 1000 to 10000 nM | < 100 nM | < 100 nM | < 100 nM | < 100 nM | > 10000 nM | 1000 to 10000 nM
CNC1CCN(c2ccc(C(=O)Nc3cc(F)c4nc(C)cn4c3)c3nn(C)cc23)C1 (stereo in doubt) [Compound 388, (S)—N-(8-fluoro-2-methylimidazo[1,2-a]pyridin-6-yl)-2-methyl-4-(3-(methylamino)pyrrolidin-1-yl)-2H-indazole-7-carboxamide] | 1000 to 10000 nM | 1000 to 10000 nM | – | – | < 100 nM | < 100 nM | > 10000 nM | > 10000 nM
Cc1cn2cc(NC(=O)c3c(F)cc(N4CCC(N(C)C)C4)c4cn(C)nc34)cc(F)c2n1 (stereo in doubt) [Compound 463, 4-[(3R)-3-(dimethylamino)pyrrolidin-1-yl]-6-fluoro-N-{8-fluoro-2-methylimidazo[1,2-a]pyridin-6-yl}-2-methylindazole-7-carboxamide] | 100 to 1000 nM | 100 to 1000 nM | < 100 nM | < 100 nM | < 100 nM | < 100 nM | > 10000 nM | 100 to 1000 nM
Cc1cn2cc(NC(=O)c3c(F)cc(N4CCC(N(C)C)C4)c4cn(C)nc34)cc(F)c2n1 (stereo in doubt) [Compound 464, 4-[(3S)-3-(dimethylamino)pyrrolidin-1-yl]-6-fluoro-N-{8-fluoro-2-methylimidazo[1,2-a]pyridin-6-yl}-2-methylindazole-7-carboxamide] | 100 to 1000 nM | 100 to 1000 nM | < 100 nM | < 100 nM | < 100 nM | < 100 nM | 1000 to 10000 nM | 100 to 1000 nM
Cc1cn2cc(NC(=O)c3ccc(C4CCNCC4)c4c3OCC4)cc(F)c2n1 [Compound 188] | > 10000 nM | > 10000 nM | 1000 to 10000 nM | 1000 to 10000 nM | 1000 to 10000 nM | 100 to 1000 nM | 1000 to 10000 nM | > 10000 nM
Cc1cn2cc(NC(=O)c3ccc(N(C)C4CC(C)(C)NC(C)(C)C4)c4cc(C)oc34)cc(F)c2n1 [Compound 201] | > 10000 nM | > 10000 nM | > 10000 nM | > 10000 nM | > 10000 nM | 1000 to 10000 nM | > 10000 nM | > 10000 nM
Cc1cn2cc(NC(=O)c3ccc(N4CCC(N(C)C)C4)c4cc(C)oc34)cc(F)c2n1 (stereo not drawn) [Compound 202] | > 10000 nM | 1000 to 10000 nM | < 100 nM | 100 to 1000 nM | 100 to 1000 nM | < 100 nM | > 10000 nM | > 10000 nM
Cc1cn2cc(NC(=O)c3ccc(N4CCC(N5CCCC5)C4)c4cc(C)oc34)cc(F)c2n1 (stereo not drawn) [Compound 204] | 1000 to 10000 nM | 1000 to 10000 nM | 100 to 1000 nM | 100 to 1000 nM | 100 to 1000 nM | < 100 nM | 1000 to 10000 nM | 1000 to 10000 nM
Cc1cn2cc(NC(=O)c3ccc(N4CC5(CNC5)C4)c4cc(C)oc34)cc(F)c2n1 [Compound 205] | 100 to 1000 nM | 1000 to 10000 nM | 100 to 1000 nM | 100 to 1000 nM | 100 to 1000 nM | < 100 nM | 1000 to 10000 nM | 100 to 1000 nM
Cc1cn2cc(NC(=O)c3ccc(N4CC5(CN(C)C5)C4)c4cc(C)oc34)cc(F)c2n1 [Compound 206] | 1000 to 10000 nM | 1000 to 10000 nM | 100 to 1000 nM | 100 to 1000 nM | 100 to 1000 nM | < 100 nM | > 10000 nM | 1000 to 10000 nM
Cc1cn2cc(NC(=O)c3ccc(C4CCN(C)CC4)c4cn(C)nc34)cc(F)c2n1 [Compound 209] | 100 to 1000 nM | 100 to 1000 nM | < 100 nM | < 100 nM | < 100 nM | 1000 to 10000 nM | 100 to 1000 nM | 100 to 1000 nM
CCN1CCC(c2ccc(C(=O)Nc3cc(F)c4nc(C)cn4c3)c3nn(C)cc23)CC1 [Compound 210] | 100 to 1000 nM | 100 to 1000 nM | < 100 nM | < 100 nM | < 100 nM | < 100 nM | 1000 to 10000 nM | 100 to 1000 nM
